Assay results as given in a melting point compilation (Tetko et al.; mined from patent text by program, amines drawn as free bases though some values may be those of a salt).

SMILES	melting point [°C]
O=C(O)CCCCCCCCCCC(=O)CCC(=O)O	117 to 118
CCn1c(=O)n(-c2ccc(-n3ccn4c5ccccc5nc34)cc2)c2ncccc21	220 to 221
OC(CCC(O)(C(F)(F)F)C(F)(F)F)(C(F)(F)F)C(F)(F)F	96 to 98
COc1ccc(C2(C#Cc3cccc(-c4nnc(C)o4)c3)CCC(=O)CC2)cc1OC1CCCC1	139 to 141
COc1cccc(Cn2c(-c3cc(OC)c(OC)c(OC)c3)nc3ccccc32)c1	127
Cc1ccc(S(=O)(=O)n2c(CCC(=O)O)cc3cc(Cl)ccc32)cc1	165 to 168
COCCN(C1CCS(=O)(=O)C1)S(=O)(=O)c1ccc(Nc2nccc(Nc3ccc(F)cc3)n2)cc1 (centres undefined)	150
c1c[nH]c(-c2cnco2)c1	57 to 58
NC(=O)c1ncn2c1[C@@H]1CCN1C(=O)c1cc(Cl)ccc1-2	251 to 253
CCc1ccc(-c2c3ccccc3c(-c3ccc(CC)cc3)c3cc(Cl)ccc23)cc1	214 to 216
CCN1C[C@@H](O)[C@H](N(C)C(=O)c2ccc([N+](=O)[O-])cc2)C1 (relative stereo)	104 to 108
Cc1ccc(Oc2cccc(-c3nnc(Nc4ccc(Cl)c(Cl)c4)s3)c2)cc1	210 to 211
COc1ccc2c(c1)CCC1C2C(O)CC2(C)C1CC1OCCOC12 (centres undefined)	125 to 126
C(#Cc1ccccn1)CCN1CC=C(c2ccccc2)CC1	87.5 to 88.5
NS(=O)(=O)c1ccc(-c2coc(=O)n2-c2ccc(F)cc2)cc1	211 to 213
O=C(C1CCN(c2c(Cl)cncc2Cl)CC1)N1CCOCC1	172 to 174
CC1(C)COCC(=O)N1NCc1ccccc1	76 to 77
NC(=O)N(O)CCOc1ccc2c(c1)CCN(CCCc1ccccc1)S2(=O)=O	134 to 135
COc1cc(C2CCN(C(=O)C3CCN3)CC2)ccc1Nc1ncc2ccc(-c3ccccc3OC)n2n1 (centres undefined)	103 to 112
CCCCN(CCCC)C(=O)CC1C(=O)N(c2ccc(Cl)cc2)C(=O)N1c1ccc(Cl)cc1 (centres undefined)	124
CN1CC(CCCl)Oc2ccc(F)cc2C1=S (centres undefined)	135 to 137
O=C(O)c1nn(-c2ccc(Cl)cc2Cl)c(-c2ccc(Cl)cc2)c1Br	222 to 224
CON1CCC2(CC1)NC(=O)NC2=O	230 to 234
Cc1ccccc1S(=O)(=O)c1cc2c(cc1C)OC(C(=O)O)O2 (centres undefined)	178 to 180
O=S(=O)(c1cccc2cccnc12)N1CCN(CCc2ccc(F)cc2)CC1	141
O=C(O)COc1cc2c(=O)c3c(F)cccc3oc2cc1Cl	242 to 245
CN(Cc1ccc2c(Br)c(OCc3nnn[nH]3)ccc2c1)C(=O)c1oc2ccccc2c1CCc1ccccc1	56 to 59
COc1ccc(F)cc1Oc1c(Cl)ncnc1NS(=O)(=O)c1ccc(C(F)(F)F)cc1	185 to 186

SMILES	melting point [°C]
CC(C)Oc1cc(N2C(=O)C3CCCCN3C2=O)c(F)cc1Cl (centres undefined)	60.5 to 64.5
O=[N+]([O-])c1cccc(C=[N+]([O-])c2cccc(CO)c2)c1	177 to 179
Cc1c(F)c([N+](=O)[O-])cc([N+](=O)[O-])c1F	81 to 82
O=C1Nc2cc(F)ccc2C12COc1cc3c(cc12)CCO3 (centres undefined)	249 to 251
COc1cc2c(cc1OC)CCCC(C(=O)N1CCN(C(=O)c3cc(OC)c(OC)c(OC)c3)C(C(=O)N(C)C)C1)=C2 (centres undefined)	177 to 178
O=C1C[C@@H](Nc2ncnc3c2ncn3[C@@H]2O[C@H](CO)[C@@H](O)[C@H]2O)C(=O)N1	167 to 169
Nc1nnn(C2CN3CCC2CC3)n1 (centres undefined)	132 to 134
O=C(NC=CC1OC1CCCNC(=O)c1ccc(OC(F)(F)F)cc1)c1ccc(OC(F)(F)F)cc1 (centres undefined)	121 to 123
O=c1[nH]c2cc(Cl)cc(Cl)c2c(=O)n1Cc1ccc(I)cc1	314 to 316
Cc1ccc(S(=O)(=O)OCC2Cc3cccc(-c4ccc(F)c(Cl)c4)c3O2)cc1 (centres undefined)	104 to 108
O=c1c2c([nH]n1-c1ccccc1)CCCC2	178 to 181
O=C(O)c1cnc(N2CCN(S(=O)(=O)c3ccc4ccccc4c3)CC2)nc1	> 260
COc1ccc(-c2ccc(-c3ccc(OC)cc3)c(-c3ccc(OCc4ccccc4)cc3)n2)cc1	99 to 102
O=[N+]([O-])c1cnccc1-c1ccc(Cl)cc1	74 to 76
CCC12CCC3C4CCCC=C4CCC3C1CCC2O (centres undefined)	118 to 120
Cc1nc(-c2ccc(C=CC3CN4CCC3CC4)cc2)no1 (centres undefined)	93 to 97
CC(C)(C)OP(=O)(Cc1ccc(Br)cc1)OC(C)(C)C	45
C[C@H](NC(=O)OC(C)(C)C)C(=O)N1CCC[C@H]1C(=O)O	155 to 157
COc1ccc2[nH]c(SCc3nccc(N4CCOCC4)c3F)nc2c1	121 to 123
O=C1Nc2ccccc2C1(c1ccc(O)cc1)c1ccc(O)cc1	267
COc1ccc(N(CCN2CCC(C(=O)c3ccc(F)cc3)CC2)C(=O)c2ccc(C#N)cc2)cc1	136 to 149
O=C(O)C1CCN(c2ncc(NS(=O)(=O)c3ccccc3Br)c(NCc3ccccc3)n2)CC1	114 to 117
Clc1ccc(-c2cn([C@H]3CN4CCC3CC4)nn2)cc1	144
CC1(C)CC(O)CC(C)(C)N1C#N	96 to 98
O=C1C2=CSCCN2C(=O)N1c1ccc(Cl)cc1F	118 to 120
COc1cccc([C@H]2O[C@H](CC(=O)NCCc3occc3C(=O)O)C(=O)N(CC(C)(C)CO)c3ccc(Cl)cc32)c1OC	126 to 129
Cc1ccccc1[PH](=O)c1ccccc1C	91.3

Next, values leading:

melting point [°C]	SMILES
263 to 265	CCc1c2nc(-c3cc(S(C)(=O)=O)ccc3OCC(C)C)[nH]c(=O)c2nn1C1CCNCC1
97	C=C(C(=O)c1cc2c(c(C)c1C)OC(C(=O)O)C2)C(C)C (centres undefined)
186 to 187	COc1cc(N)c(Cl)cc1-c1nn(C2CCN(CC3CCCCC3)CC2)c(=O)o1
205 to 209	COc1cc(OC)nc(NC(=O)NS(=O)(=O)c2nn(C)c3cccc(F)c23)n1
303 to 305	Cc1nn(-c2ccc(C(=N)N)cc2)c(=O)n1-c1ccc(CCC(=O)O)cc1
99	CC1(C)CCC(C)(C)c2cc(CCCC(=O)O)ccc21
176 to 177	COc1ccc(CSc2nnc(-c3ccnc(NC(=O)CCc4ccccc4)c3)o2)cc1C#N
129 to 131	CCOC(=O)CSc1ncnc2c(O)n(C(C)(C)C)nc12
178	Nc1nc2ccc(OCc3c(F)cccc3F)cc2s1
236 to 238	COc1ncccc1C(=O)NC1CNCCn2c1nc(-c1ccncn1)cc2=O (racemic)
198	Cc1ccc2c(N=[N+]=[N-])c(C(=O)O)cnc2n1
103 to 104	Cc1cc(Nc2ccnc(Nc3ccc(S(=O)(=O)N4CCC(C(O)Cc5ncccc5C)CC4)cc3)n2)ccc1F (centres undefined)
59 to 61	Cc1cc(C(=O)OC2CC(C)(C)NC(C)(C)C2)c(C)o1
139 to 141	CCN(CC)CCOc1ccc(Nc2ncc3c(n2)N(CC)C(=O)N(c2cc(OC)cc(OC)c2)C3)cc1
68 to 71	COc1ccc2c(c1)CCC(=Cc1ccc(OCCCN(C)C)cc1)C2=O
72 to 74	CC(C)(C)c1ccc(CN(CCOc2cccc(N)c2N)C(=O)C(F)(F)F)cc1
79 to 80	CCc1nc(COc2ccc([N+](=O)[O-])cc2)cs1
> 300	COc1ccc2c(c1)Cc1c([nH]cnc1=O)N2
227 to 229	COc1ccc2nc(NC(=O)C(CC3CCCC3)c3ccc(S(=O)(=O)NCc4cccnc4)cc3)sc2n1 (centres undefined)
175 to 178	COc1cc(OC(CCc2ccc(Cl)cc2)Cn2ccnc2)ccc1NC(C)=O (centres undefined)
113 to 114	Cc1cc(C)c2nsnc2c1N
168 to 170	Cc1noc(NS(=O)(=O)c2ccsc2C(N)=O)c1Br

melting point [°C]	SMILES
112 to 113	COc1c([N+](=O)[O-])cc(C#N)c(F)c1O
209 to 211	CCCCOc1ccccc1Nc1ncc(C(=O)OCC)c(=O)[nH]1
126 to 127	CC1(C)CC(S(=O)(=O)Cc2c(C(F)(F)F)nn(C(F)F)c2Cl)=NO1
265 to 268	COc1ccc(OC)c2c1C(=O)OC2=O
153 to 155	CC(C)C(CS(=O)(=O)c1ccc(-c2cccc(CNC(=O)c3nc4ccccc4c(=O)[nH]3)c2)cc1)N(O)C=O (centres undefined)
75	CCc1cc(N)c(C(=O)OC)c(CC)n1
206 to 209	CCCc1nc2c(N)nc3cc(-c4ccccc4NC(C)=O)ccc3c2s1
195 to 196	CCOC(=O)C(=O)Nc1c([N+](=O)[O-])sc2cc(OC)ccc12
227 to 230	COc1cc2c(Nc3ccc(Cl)cc3F)ncnc2cc1OCCS(C)(=O)=O
91.8 to 92.3	COC(=O)c1cccc(OS(=O)(=O)C(F)(F)F)c1O
> 250	CNc1nc(C#N)c(C#N)nc1NC(C)(C)C
180 to 184	CCCNC(=O)C(C#N)=NNc1ccccc1-c1ccccc1
217 to 219	Cc1ccc2c(n1)Nc1cc(C)c(C)cc1N(C)C2=O
250 to 251	COc1ccc(Nc2nc(=O)c3cccnc3s2)cc1
110	CC(C)NCC(O)COc1cccnc1N (centres undefined)
171 to 175	COc1cc(OC)nc(NC(=O)NS(=O)(=O)c2ccccc2Cc2nnc(SC)s2)n1
123 to 126	Cc1cc(-n2nc(C(N)=O)nc2-c2ccccc2)ccc1F
282 to 284	COc1cc2nc(N)nc(-c3cc(Br)c(C)cc3Br)c2cc1OC
134 to 138	C[C@@H](CO)COc1ccc(-c2ccc(Cl)nn2)cc1
> 270	O=C(O)COc1cc2c(=O)cc(C(=O)O)[nH]c2ccc1=O
171 to 172	COC(=O)c1ccc(Cn2ncc3ccc([N+](=O)[O-])cc32)cc1
160 to 163	COC(=O)[C@@H](NC(=O)[C@H](Cc1ccccc1)NC(=O)c1ccccc1)C(C)C
